2 molecules from patent publication US10905738B2, “Synthetic peptides, prodrugs, pharmaceutical compositions and uses” (Biozeus Desenvolvimento De Produtos Biofarmacêuticos, priority 2018, dated 2021) can be followed below.

This experiment has as its system smooth muscle of pulmonary arteries. As to the kind of experiment: relaxation of pulmonary arteries contracted with phenylephrine ex vivo. The arrangement: species or system male Wistar rats. As to conditions: n = 9; for pEC50: pulmonary arteries contracted with phenylephrine, peptides 1 nM-10 μM, mean±SEM; for Effectiveness (Emax) (%): relaxation percentage related to maximum phenylephrine contraction. The source says:
The ex vivo model of pulmonary artery smooth muscle contraction with phenylephrine is very useful to screen candidate compounds for lung diseases that demand vasodilating effects (ALENCAR, A. K., PEREIRA, S. L., MONTAGNOLI, T. L., MAIA, R. C., KUMMERLE, A. E., LANDGRAF, S. S., CARUSO-NEVES, C., FERRAZ, E. B., TESCH, R., NASCIMENTO, J. H., DE SANT'ANNA, C. M., FRAGA, C. A., BARREIRO, E. J., SUDO, R. T., ZAPATA-SUDO, G. Beneficial effects of a novel agonist of the adenosine A2A receptor on monocrotaline-induced pulmonary hypertension in rats. Br J Pharmacol, 169: 953-62. 2013).
Rats were anesthetized with midazolam and ketamine (2 mg/kg and 100 mg/kg, respectively) via intraperitoneal administration. After infusion of a lethal dose of sodium thiopental via intraperitoneal administration (50 mg/kg), the trunk of the pulmonary artery was carefully removed via sternotomy. The pulmonary artery was carefully dissected and the connective tissue removed. The arteries were connected to a force transductor, positioned in vertical chambers filled with Krebs solution, oxygenated and kept at 37° C.
After a stabilization period of 2 hours at a tension of 1.5 grams, the arteries were exposed to increasing doses of phenylephrine (1 nM-10 μM) in order to obtain maximum smooth muscle contraction and then exposed to increasing doses of selected peptides in the concentrations of 1 nM-10 μM each (n=9). The tension generated by the pulmonary artery was evaluated at intervals of 5 minutes for each dose (ALENCAR, A. K., PEREIRA, S. L., MONTAGNOLI, T. L., MAIA, R. C., KUMMERLE, A. E., LANDGRAF, S. S., CARUSO-NEVES, C., FERRAZ, E. B., TESCH, R., NASCIMENTO, J. H., DE SANT'ANNA, C. M., FRAGA, C. A., BARREIRO, E. J., SUDO, R. T., ZAPATA-SUDO, G. Beneficial effects of a novel agonist of the adenosine A2A receptor on monocrotaline-induced pulmonary hypertension in rats. Br J Pharmacol 169: 953-62. 2013; ALENCAR, A. K., PEREIRA, S. L., DA SILVA, F. E., MENDES, L. V., CUNHA VDO, M., LIMA, L. M., MONTAGNOLI, T. L., CARUSO-NEVES, C., FERRAZ, E. B., TESCH, R., NASCIMENTO, J. H., SANT'ANNA, C. M., FRAGA, C. A., BARREIRO, E. J., SUDO, R. T., ZAPATA-SUDO, G. N-acylhydrazone derivative ameliorates monocrotaline-induced pulmonary hypertension through the modulation of adenosine AA2R activity. International Journal of Cardiology, 173(2): 154-62. 2014).
Potency values are shown as the negative logarithm of the concentration that reduced the voltage to 50% of the maximum phenylephrine-induced contraction (pEC50), and they are expressed as mean±SEM. The maximum contraction achieved in a given artery was considered to be 100% of contraction, and the effectiveness (Emax) was expressed as the relaxation percentage related to this maximum value. The results were calculated from at least 3 independent tests using the sigmoid non-linear regression equation, and the statistical analysis of the concentration curve was done by performing a nonlinear fit of the logarithmic of the agonist versus response. All the above calculations were performed on the software Graph Prism 5.0 (GraphPad Software, La Jolla, Calif., USA). Tension analysis was performed on the software LabChart7 (AD Instruments, Sydney, Australia). As a cutoff to determine biological significance, we considered pulmonary artery relaxation values above 30% as biologically relevant, considered those as active and then calculated the Emax values (SUN, C. K., LIN, Y. C., YUEN, C. M., CHUA, S., CHANG, L. T., SHEU, J. J., LEE, F. Y., FU, M., LEU, S., YIP, H. K. Enhanced protection against pulmonary hypertension with sildenafil and endothelial progenitor cell in rats. International journal of cardiology, 162(1): 45-58. 2012; ALENCAR, A. K., PEREIRA, S. L., DA SILVA, F. E., MENDES, L. V., CUNHA VDO, M., LIMA, L. M., MONTAGNOLI, T. L., CARUSO-NEVES, C., FERRAZ, E. B., TESCH, R., NASCIMENTO, J. H., SANT'ANNA, C. M., FRAGA, C. […]

Molecules are shown by their SMILES. Where a SMILES comes first, the peptide text is derived from it.

As usually defined, the pEC50 is −log10 of the EC50, conventionally taken in molar units.

As to `CC[C@H](C)[C@H](NC(=O)[C@H](Cc1c[nH]c2ccccc12)NC(=O)[C@H](Cc1ccccc1)NC(C)=O)C(=O)N[C@@H](C)C(=O)N[C@@H](Cc1c[nH]c2ccccc12)C(=O)N[C@@H](Cc1ccc(O)cc1)C(=O)N[C@@H](CCCCN)C(=O)N[C@@H](CC(C)C)C(=O)N[C@@H](C)C(N)=O` [SEQ ID NO: 19, Ac-Phe-Trp-Ile-Ala-Trp-Tyr-Lys-Leu-Ala-NH2] (Ac-FWIAWYKLA-NH2), the pEC50 turned out to be 6.9 ± 6.55 and the “Effectiveness (Emax) (%)” value is listed as 24% ± 9.71.

On to `CC[C@H](C)[C@H](NC(C)=O)C(=O)N[C@@H](C)C(=O)N[C@@H](Cc1c[nH]c2ccccc12)C(=O)N[C@@H](Cc1ccc(O)cc1)C(=O)N[C@@H](CCCCN)C(N)=O` [SEQ ID NO: 24, Ac-Ile-Ala-Trp-Tyr-Lys-NH2] (Ac-IAWYK-NH2), for which the pEC50 was 4.4 ± 6.4 and the “Effectiveness (Emax) (%)” value is 5% ± 5.96.
